Measured values taken from the supplement of paper PMC8967900.

Columns and labels:
Experiment in all cases: selective drug sensitivity score (sDSS, relative to normal bone marrow) (sDSS (score)); higher = more potent and effective on the cell line relative to normal bone marrow cells
Conditions in all cases: 72 h
SEM cells = test system: SEM cells
MOLT-14 = test system: MOLT-14
KARPAS-45 = test system: KARPAS-45
DND-41 = test system: DND-41
P12-ICHIKAWA = test system: P12-ICHIKAWA
KASUMI-2 = test system: KASUMI-2
COG-LL-317 = test system: COG-LL-317
TMD5 = test system: TMD5
697 = test system: 697
MHH-CALL-4 = test system: MHH-CALL-4
ALL-SIL = test system: ALL-SIL
COG-LL-332h = test system: COG-LL-332h
HPB-ALL = test system: HPB-ALL
PEER = test system: PEER
KOPN-8 = test system: KOPN-8
NALL-1 = test system: NALL-1
LC4-1 = test system: LC4-1
MOLT-4 = test system: MOLT-4
COG-LL-355h = test system: COG-LL-355h
TANOUE = test system: TANOUE
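Note: ALL cell lines in 384-well plates, five doses spanning 10,000-fold, each plate scaled between vehicle and 100 µmol/L benzalkonium chloride controls, sDSS an adapted area-under-curve metric.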

SMILES | selective drug sensitivity score (SEM cells) | selective drug sensitivity score (MOLT-14) | selective drug sensitivity score (KARPAS-45) | selective drug sensitivity score (DND-41) | selective drug sensitivity score (P12-ICHIKAWA) | selective drug sensitivity score (KASUMI-2) | selective drug sensitivity score (COG-LL-317) | selective drug sensitivity score (TMD5) | selective drug sensitivity score 697 | selective drug sensitivity score (MHH-CALL-4) | selective drug sensitivity score (ALL-SIL) | selective drug sensitivity score (COG-LL-332h) | selective drug sensitivity score (HPB-ALL) | selective drug sensitivity score (PEER) | selective drug sensitivity score (KOPN-8) | selective drug sensitivity score (NALL-1) | selective drug sensitivity score (LC4-1) | selective drug sensitivity score (MOLT-4) | selective drug sensitivity score (COG-LL-355h) | selective drug sensitivity score (TANOUE)
CN(C)CCCOc1ccc(-c2ccc3ncc4c(c3c2)n(C2CCOCC2)c(=O)n4C)cn1 [AZD0156] (top concentration 1000 nM) | 1.14 | 0.14 | 0.14 | 4.14 | 0.14 | 2.84 | -0.06 | -0.06 | 1.04 | 1.54 | 1.84 | 0.64 | 0.24 | -0.06 | 2.04 | 2.54 | 1.04 | -0.06 | 0.74 | -0.06
N#Cc1ccc2[nH]c(O)c(-c3ccc(CN4CCOCC4)cn3)c2c1 [AZD-1080] (top concentration 10000 nM) | 4.58 | -0.02 | -0.02 | -0.02 | -0.02 | 3.48 | 3.38 | -0.02 | 4.38 | -0.02 | -0.02 | -0.02 | -0.02 | -0.02 | 4.28 | -0.02 | 3.28 | -0.02 | 3.98 | -0.02
CN(C)C/C=C/C(=O)Nc1cc2c(Nc3ccc(F)c(Cl)c3)ncnc2cc1O[C@H]1CCOC1 [Afatinib] (top concentration 1000 nM) | 0.96 | -0.84 | 1.06 | -0.84 | -0.74 | -0.84 | -0.84 | 3.56 | -0.34 | -0.84 | -0.84 | -0.84 | -0.84 | 0.66 | -0.74 | -0.84 | -0.84 | -0.84 | 0.46 | -0.84
O=C(Nc1ccc(OC(F)(F)Cl)cc1)c1cnc(N2CC[C@@H](O)C2)c(-c2cc[nH]n2)c1 [Asciminib] (top concentration 1000 nM) | 5.72 | -0.28 | -1.98 | 0.22 | -1.98 | -1.98 | -0.88 | 13.6 | -1.18 | 7.12 | 31.2 | 5.62 | 1.62 | 16.2 | 11.4 | 3.62 | -1.98 | 1.12 | 2.02 | 1.12
CC[C@@H]1C(=O)N(C)c2cnc(Nc3ccc(C(=O)NC4CCN(C)CC4)cc3OC)nc2N1C1CCCC1 [BI-2536] (top concentration 1000 nM) | 20.7 | 19 | 21.3 | 15.6 | 20.9 | 14.1 | 21.2 | 10.4 | 17.4 | 6.94 | 21.5 | 17.4 | 18.2 | 20.8 | 17 | -8.46 | 20.1 | 19.6 | 4.84 | -8.46
Cc1ccc(NC(=O)c2ccc(CN3CC[C@H](N(C)C)C3)c(C(F)(F)F)c2)cc1Nc1nccc(-c2cncnc2)n1 [Bafetinib] (top concentration 1000 nM) | 0 | 0.3 | 0 | 1 | 0 | 0.3 | 0 | 9.1 | 0 | 0 | 34 | 12.3 | 0 | 15.4 | 3.1 | 0 | 0.4 | 0 | 0.8 | 0
CC[C@H](NC(=O)[C@H](C)NC)C(=O)N1C[C@@H](O)C[C@H]1Cc1c(-c2[nH]c3cc(F)ccc3c2C[C@@H]2C[C@H](O)CN2C(=O)[C@H](CC)NC(=O)[C@H](C)NC)[nH]c2cc(F)ccc12 [Birinapant] (top concentration 1000 nM) | -5.1 | -5.1 | -5.1 | -5.1 | -5.1 | 7.8 | -5 | -0.1 | -5.1 | 7.5 | 8.7 | 9.6 | -5.1 | -4.4 | -5.1 | 6.9 | -5.1 | -5.1 | 13.3 | -5.1
COc1cc2nccc(Oc3ccc(NC(=O)C4(C(=O)Nc5ccc(F)cc5)CC4)cc3)c2cc1OC [Cabozantinib] (top concentration 1000 nM) | 17.6 | 1.28 | -2.42 | -3.62 | -3.62 | -3.62 | -3.62 | -3.62 | -1.42 | 3.78 | 4.48 | -0.12 | -3.02 | 2.08 | 24.9 | -3.62 | -3.02 | -0.92 | 2.18 | -3.62
CCCCCOC(=O)Nc1nc(=O)n([C@@H]2O[C@H](C)[C@@H](O)[C@H]2O)cc1F [Capecitabine] (top concentration 10000 nM) | 0.04 | -0.06 | -0.06 | 1.84 | -0.06 | -0.06 | -0.06 | -0.06 | -0.06 | 0.04 | -0.06 | -0.06 | 0.64 | -0.06 | -0.06 | -0.06 | -0.06 | -0.06 | -0.06 | -0.06
Nc1nc(Cl)nc2c1ncn2[C@H]1C[C@H](O)[C@@H](CO)O1 [Cladribine] (top concentration 1000 nM) | 3.96 | 5.66 | -15.7 | 1.16 | -5.24 | 6.76 | 1.06 | -16 | 10.5 | 4.06 | 9.36 | 3.26 | -9.34 | -12.2 | 9.66 | 1.86 | 6.26 | -7.74 | 0.16 | -16
CCN(CC)CCOc1ccc(/C(=C(/Cl)c2ccccc2)c2ccccc2)cc1 [Clomifene] (top concentration 10000 nM) | 2.32 | -0.28 | 1.22 | 1.62 | 0.32 | 0.82 | 0.22 | 1.32 | 0.92 | 2.72 | 0.12 | 0.42 | -0.78 | 1.02 | 8.92 | 1.22 | 4.62 | -1.08 | 0.52 | -2.98
CO[C@@H](C(=O)N1Cc2[nH]nc(NC(=O)c3ccc(N4CCN(C)CC4)cc3)c2C1)c1ccccc1 [Danusertib] (top concentration 10000 nM) | 19.2 | 15.5 | 8.94 | -1.36 | 21.7 | 9.14 | 19.4 | 14.5 | 21.4 | 7.14 | 22.8 | 17.2 | 5.54 | 21.6 | 19 | 13.5 | 19.9 | 14.5 | 3.04 | -9.16
CC[C@@](C)(Nc1ccnc(-c2c[nH]c3ncccc23)n1)C(=O)NCC(F)(F)F [Decernotinib] (top concentration 10000 nM) | -2.74 | -3.94 | -3.94 | -2.64 | -3.94 | -1.84 | -3.94 | -1.74 | -1.54 | -3.94 | -2.44 | -3.34 | -3.94 | -3.84 | -3.94 | -3.94 | -3.94 | -3.94 | -3.94 | -3.94
CN1CCN(c2ccc3nc(-c4c(N)c5c(F)cccc5[nH]c4=O)[nH]c3c2)CC1 [Dovitinib] (top concentration 10000 nM) | 10.1 | 0.46 | 0.26 | 0.16 | -0.14 | -0.14 | -0.04 | -0.14 | 1.56 | -0.14 | -0.14 | 0.36 | -0.14 | 0.66 | -0.14 | -0.14 | 0.06 | -0.14 | 3.66 | -0.14
CC(C)(O)CNc1nc(Nc2ccnc(C(F)(F)F)c2)nc(-c2cccc(C(F)(F)F)n2)n1 [Enasidenib] (top concentration 10000 nM) | 2.3 | -0.8 | 4.1 | 0.4 | 0.2 | 4 | 0.8 | -0.8 | -0.2 | -0.8 | 1.8 | -0.5 | -0.5 | 0.6 | 1.2 | -0.8 | 3.9 | -0.8 | -0.6 | -0.8
CN1CCN(c2ccc(C(=O)Nc3n[nH]c4ccc(Cc5cc(F)cc(F)c5)cc34)c(NC3CCOCC3)c2)CC1 [Entrectinib] (top concentration 1000 nM) | 3.5 | -0.7 | -0.9 | -1.2 | -1.2 | -1.2 | -0.7 | -0.5 | -1.2 | 0.4 | -0.6 | -0.5 | -1.2 | 0.9 | 0.1 | -0.3 | -1.2 | -1.2 | 1.5 | -1.2
CNC(=O)c1ccc(N2C(=S)N(c3ccc(C#N)c(C(F)(F)F)c3)C(=O)C2(C)C)cc1F [Enzalutamide] (top concentration 10000 nM) | -0.82 | -0.02 | -0.82 | 1.58 | -0.42 | -0.82 | 1.18 | -0.82 | 1.48 | -0.72 | -0.82 | -0.12 | 8.28 | 0.48 | 5.18 | -0.82 | 0.28 | -0.82 | -0.82 | -0.32
